These results are taken from patent US20260167656A1, “PHOSPHORAMIDATE COMPOUNDS AND USES THEREOF” (ALLORION THERAPEUTICS INC, priority 2022, published 2026).

By IC50 is commonly meant the concentration that gives 50% inhibition.

For test [1], the system named is non-small cell lung cancer cell line H460. Briefly: In vitro human cancer cell line cytotoxicity (proliferation) assay in H460, CellTiter-Glo, 72 hours. The note with it: DMSO condition (no AKR1C3 inhibitor), read-out: CTG H460: Avg IC50 (nM) [Assay Condition: DMSO]. The class given is cell-based. Summed up: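 H460 cells were seeded at 3×10^3 per well and grown 24 h at 37 °C, 5% CO2 before compound addition from 10 mM DMSO stocks. After 72 h further incubation, viability was measured by CellTiter-Glo, and IC50 values in nM were derived from the proliferation data.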
A general note: Cellular ATP, detected with luciferase, serves as a proxy for viable cell number.

Test [2] shares this test system. Briefly: H460 proliferation assay in the presence of 3 uM ASP9521 (AKR1C3 specific inhibitor). The note with it: H460 cells, CellTiter-Glo, 72 hours, in the presence of 3 uM ASP9521 added 4 hours prior to compounds; read-out: CTG H460: Avg IC50 (nM) [Assay Condition: ASP9521]. The class given is cell-based, human. Summed up: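 H460 cells pre-incubated 24 h, then exposed to compounds for 72 h at 37 °C, 5% CO2. Viability read by CellTiter-Glo. ASP9521 (3 uM, AKR1C3 inhibitor) added 4 h before compounds.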

[3] abbreviates: Homo sapiens, NCI-H460, 72 h, H460 cells.

The structures appear in SMILES notation. Where only a bound is given, the exact number is not on record here.

Consider `Cn1cc(-c2ccc(Oc3cc4c(cc3[N+](=O)[O-])CCC4OP(=O)(N3CC3)N3CC3)cc2)ccc1=O` (stereo not drawn) [Example 179], for which the values for the IC50 in test [1] (H460 cells) and in test [2] were not below 100 nM and 1100 nM, respectively.
For `C[C@H](OP(=O)(N1CC1)N1CC1)c1cc2cc(Oc3cncc(-c4ccccc4)c3)c([N+](=O)[O-])cc2o1` [Example 568] the same measures were less than 10 nM and 1920 nM.
For `O=C1c2cc(Oc3cc4c(cc3[N+](=O)[O-])CCC4OP(=O)(N3CC3)N3CC3)ccc2CN1C1CC1` (single isomer, unassigned) [Example 170], the IC50 in test [1] (setting [3]) is less than 10 nM; in test [2], 801 nM.
For the compound `C[C@H](OP(=O)(N1CC1)N1CC1)c1cc2cc(Oc3cccc(C(=O)N4CC(F)(F)C4)c3)c([N+](=O)[O-])cc2o1` [Example 552], the IC50 in test [1] (H460 cells) was 10 to 50 nM; in test [2] it was 5870 nM.
Turning to `O=[N+]([O-])c1cc2c(cc1Oc1ccc(-c3cccnc3)cc1)C(OP(=O)(N1CC1)N1CC1)CC2` (stereo not drawn) [Example 187], the IC50 in test [1] (setting [3]) is 10 to 50 nM; in test [2], more than 10000 nM.
As for `O=[N+]([O-])c1cc2oc(COP(=O)(N3CC3)N3CC3)cc2cc1Oc1cccc(OC(F)(F)F)c1` [Example 542], the IC50 was less than 10 nM in test [1] (H460 cells) and 963 nM in test [2].
Consider `O=C(c1cccc(Oc2c([N+](=O)[O-])ccc3c2CCC3OP(=O)(N2CC2)N2CC2)c1)N1CCCOCC1` (stereo not drawn) [Example 105], for which the IC50 in test [1] (setting [3]) is 10 to 50 nM; in test [2], 1300 nM.
`O=[N+]([O-])c1ccc2c(c1Oc1ccccc1)OCCC2OP(=O)(N1CC1)N1CC1` (stereo not drawn) [Example 127, 7-nitro-8-phenoxy-3,4-dihydro-2H-1-benzopyran-4-yl bis(aziridin-1-yl)phosphinate]: the half-inhibitory concentration (IC50) is 10 to 50 nM in test [1] (setting [3]) and 291 nM in test [2].
`O=C(NC1CC1)c1ccc(Oc2c([N+](=O)[O-])ccc3c2CCC3OP(=O)(N2CC2)N2CC2)cc1` (stereo not drawn) [Example 73]: the IC50 in test [1] (H460 cells) is less than 10 nM; in test [2] it was 943 nM.
As to `O=[N+]([O-])c1ccc2c(c1Oc1ccc(-c3ccccn3)cc1)CC[C@@H]2OP(=O)(N1CC1)N1CC1` (single isomer, unassigned) [Example 40], the IC50 in test [1] (setting [3]) was less than 10 nM; in test [2] it was 929 nM.
Consider `Cc1ccnc(-c2ccc(Oc3c([N+](=O)[O-])ccc4c3CC[C@@H]4OP(=O)(N3CC3)N3CC3)cc2)n1` (single isomer, unassigned) [Example 264], for which the half-maximal inhibitory concentration (IC50) in test [1] (setting [3]) was less than 10 nM; in test [2], 1370 nM.
Taken in the same sequence, the figures for `O=[N+]([O-])c1ccc2c(c1Oc1ccc3c(c1)OCO3)CC[C@@H]2OP(=O)(N1CC1)N1CC1` [Example 394] were less than 10 nM and 388 nM.
Taken in the same sequence, the figures for `O=[N+]([O-])c1ccc2c(c1Oc1ccc(F)c(OCC(F)(F)F)c1)CC[C@H]2OP(=O)(N1CC1)N1CC1` [Example 431] were less than 10 nM and 238 nM.
Regarding `O=[N+]([O-])c1ccc2c(c1Oc1ccc(-c3ncc(F)cn3)cc1)CC[C@@H]2OP(=O)(N1CC1)N1CC1` (single isomer, unassigned) [Example 265], the half-maximal inhibitory concentration (IC50) in test [1] (setting [3]) was less than 10 nM; in test [2], 1300 nM.
In the case of `O=[N+]([O-])c1cc2oc(COP(=O)(N3CC3)N3CC3)cc2cc1Oc1cccc(-c2ccccn2)c1` [Example 536], the IC50 in test [1] (setting [3]) is less than 10 nM; in test [2] it was 651 nM.
With `Cn1cc(-c2cc(Oc3c([N+](=O)[O-])ccc4c3CCC4OP(=O)(N3CC3)N3CC3)ccc2F)cn1` (stereo not drawn) [Example 330], the IC50 was less than 10 nM in test [1] (H460 cells) and 2980 nM in test [2].
With `C[C@H]1CN1P(=O)(OC(c1ccc([N+](=O)[O-])c(Oc2cccc(C(=O)N(C)C)c2)c1)C(F)(F)F)N1C[C@@H]1C` (single isomer, unassigned) [Example 225], the IC50 was 50 to 100 nM in test [1] (setting [3]) and 9530 nM in test [2].
Taken in the same sequence, the figures for `CCC1CN1P(=O)(OCc1ccc([N+](=O)[O-])c(Oc2cccc(C(=O)N(C)C)c2)c1)N1CC1CC` (stereo not drawn) [Example 10] were less than 10 nM and 271 nM.
Regarding `O=[N+]([O-])c1cc2c(cc1Oc1ccc(-c3ccc(F)cn3)c(F)c1)C(OP(=O)(N1CC1)N1CC1)CC2` (stereo not drawn) [Example 143], the IC50 is less than 10 nM in test [1] (H460 cells) and 1720 nM in test [2].
As for `Cn1cc(-c2ccc(Oc3cc4c(cc3[N+](=O)[O-])CCC4OP(=O)(N3CC3)N3CC3)cc2)cn1` (stereo not drawn) [Example 180], the figures for the 50% inhibitory concentration (IC50) in test [1] (setting [3]) and in test [2] were less than 10 nM and 1950 nM, respectively.
Regarding `O=[N+]([O-])c1ccc2c(c1Oc1cccc(OC(F)(F)F)c1)CCC2OP(=O)(N1CC1)N1CC1` (racemic) [Example 447], the half-inhibitory concentration (IC50) in test [1] (H460 cells) is less than 10 nM; in test [2], 547 nM.
For the compound `O=c1ccc(Oc2c([N+](=O)[O-])ccc3c2CCC3OP(=O)(N2CC2)N2CC2)cn1C1CC1` (stereo not drawn) [Example 511], the IC50 was less than 10 nM in test [1] (H460 cells) and 429 nM in test [2].
Turning to `Cc1nncn1-c1cccc(Oc2c([N+](=O)[O-])ccc3c2CC[C@@H]3OP(=O)(N2CC2)N2CC2)c1` [Example 434], the IC50 in test [1] (setting [3]) is less than 10 nM; in test [2], 1140 nM.
Taken in the same sequence, the figures for `CN(C)C(=O)c1cccc(Oc2c([N+](=O)[O-])ccc3c2CCC3OP(=O)(N2CC2)N2CC2)c1` (single isomer, unassigned) [Example 32] were less than 10 nM and 145 nM.
As for `O=C1c2cc(Oc3cc4c(cc3[N+](=O)[O-])CCC4OP(=O)(N3CC3)N3CC3)ccc2CN1C1COC1` (stereo not drawn) [Example 163], the IC50 is less than 10 nM in test [1] (H460 cells) and 1340 nM in test [2].
For `Cc1ccnc(-c2ccc(Oc3c([N+](=O)[O-])ccc4c3CCC4OP(=O)(N3CC3)N3CC3)cc2)n1` (racemic) [Example 280] the same measures were less than 10 nM and 1300 nM.
With `Cc1ncc(-c2cccc(Oc3c([N+](=O)[O-])ccc4c3CC[C@@H]4OP(=O)(N3CC3)N3CC3)c2)[nH]1` [Example 344], the results for the 50% inhibitory concentration (IC50) in test [1] (setting [3]) and in test [2] were less than 10 nM and 1510 nM, respectively.
As to `C[C@H]1CN1P(=O)(OCc1c(F)c(F)c(OCc2ccc([N+](=O)[O-])c(Oc3cccc(C(=O)N(C)C)c3)c2)c(F)c1F)N1C[C@@H]1C` (stereo partly drawn) [Example 12, 4-((3-(3-(dimethylcarbamoyl)phenoxy)-4-nitrobenzyl)oxy)-2,3,5,6-tetrafluorobenzyl bis((S)-2-methylaziridin-1-yl)phosphinate], the IC50 was less than 10 nM in test [1] (setting [3]) and 89 nM in test [2].
Turning to `C[C@H](OP(=O)(N1CC1)N1CC1)c1cc2cc(Oc3cccc(OC(F)(F)F)c3)c([N+](=O)[O-])cc2o1` (single isomer, unassigned) [Example 532], the concentration for half-maximal inhibition (IC50) is less than 10 nM in test [1] (setting [3]) and 1230 nM in test [2].
With `O=[N+]([O-])c1ccc2c(c1Oc1cccc(OC3CC3)c1)CC[C@H]2OP(=O)(N1CC1)N1CC1` [Example 467], the half-inhibitory concentration (IC50) is less than 10 nM in test [1] (H460 cells) and 4160 nM in test [2].
`CC(C)COc1cc(Oc2c([N+](=O)[O-])ccc3c2CC[C@H]3OP(=O)(N2CC2)N2CC2)ccc1F` [Example 499]: the IC50 in test [1] (setting [3]) is less than 10 nM; in test [2], 918 nM.
Taken in the same sequence, the figures for `Cc1ccn(-c2cccc(Oc3c([N+](=O)[O-])ccc4c3CC[C@H]4OP(=O)(N3CC3)N3CC3)c2)n1` [Example 430] were less than 10 nM and 4860 nM.
In the case of `Cc1nsc(-c2cc(Oc3c([N+](=O)[O-])ccc4c3CC[C@@H]4OP(=O)(N3CC3)N3CC3)ccc2F)n1` [Example 359], the 50% inhibitory concentration (IC50) in test [1] (Homo sapiens, NCI-H460, H460 cells) was less than 10 nM; in test [2], 1470 nM.
With `CC(OP(=O)(N1C[C@@H]1C)N1C[C@@H]1C)c1ccc([N+](=O)[O-])c(Oc2ccc(-c3ccccc3)cc2)c1` (stereo partly drawn) [Example 219], the 50% inhibitory concentration (IC50) in test [1] (H460 cells) was less than 10 nM; in test [2], 2750 nM.
`O=[N+]([O-])c1ccc2c(c1Oc1cccc(-n3cncn3)c1)CC[C@@H]2OP(=O)(N1CC1)N1CC1` [Example 435]: the IC50 in test [1] (setting [3]) is less than 10 nM; in test [2], 482 nM.
Turning to `O=[N+]([O-])c1cc2c(cc1Oc1ccccc1-c1ccccc1)C(OP(=O)(N1CC1)N1CC1)CC2` (stereo not drawn) [Example 197], the 50% inhibitory concentration (IC50) in test [1] (H460 cells) is not below 100 nM; in test [2], 1760 nM.
For `Cc1cc2cc(Oc3c([N+](=O)[O-])ccc4c3CC[C@H]4OP(=O)(N3CC3)N3CC3)ccc2n1C` [Example 391], the figures for the IC50 in test [1] (setting [3]) and in test [2] were less than 10 nM and 1810 nM, respectively.
Turning to `C[C@@H](OP(=O)(N1CC1)N1CC1)c1cc2cc(Oc3cncc(-c4ccccc4)c3)c([N+](=O)[O-])cc2o1` [Example 567], the half-maximal inhibitory concentration (IC50) in test [1] (H460 cells) is less than 10 nM; in test [2] it was 2110 nM.
Consider `CC(OP(=O)(N1C[C@@H]1C)N1C[C@@H]1C)c1ccc([N+](=O)[O-])c(Oc2cccc(C(=O)N(C)C)c2)c1` (stereo partly drawn) [Example 211], for which the half-maximal inhibitory concentration (IC50) is less than 10 nM in test [1] (setting [3]) and 1270 nM in test [2].
For `O=[N+]([O-])c1ccc2c(c1Oc1cccc(-n3ccc(C4CC4)n3)c1)CCC2OP(=O)(N1CC1)N1CC1` (stereo not drawn) [Example 115] the same measures were 10 to 50 nM and 4730 nM.
Take `O=C1c2cc(Oc3cc4c(cc3[N+](=O)[O-])OCCC4OP(=O)(N3CC3)N3CC3)ccc2CN1C1CC1` (single isomer, unassigned) [Example 204]: the IC50 in test [1] (H460 cells) is 10 to 50 nM; in test [2], 1550 nM.
Taken in the same sequence, the figures for `O=[N+]([O-])c1ccc2c(c1Oc1ccc(O)c(-c3ncc(F)cn3)c1)CCC2OP(=O)(N1CC1)N1CC1` (stereo not drawn) [Example 338] were 10 to 50 nM and 5560 nM.
